Tested on: M2 macrophages differentiated from human monocyte-derived cells (THP-1)
Experiment: IL-10 inducing ability in M2 macrophages (Human IL-10 ELISA of culture supernatant)
Type: cell-based
Details: Reference Example 1; 500 ng/ml FSL-1, 5000 nM WKYMVm at preparation, final 1/50; 24 hours; n=6
Procedure: The anti-inflammatory cytokine IL-10 inducing ability in M2 macrophages differentiated from human monocyte-derived cells (THP-1, JCRB Cell Bank) was evaluated by the following procedure, which is a modification of the method described in the literature (BMC Cancer 15:577 (2015)). […]
After the culture, the culture supernatant was collected, and the IL-10 concentration in the supernatant was calculated using Human IL-10 DuoSet ELISA (R&D Systems). […]
Student's t-test was used for statistical processing. […] The results of IL-10 concentration are shown as the average of the values measured in six tests. […]
The IL-10 inducing activity of the test samples was evaluated according to the procedure described in [Reference Example 1] above. […]
The IL-10 induction rate was calculated according to the following formula. […]

## FSL-1
  IL-10 Concentration (pg/mL) Average: 180.8 pg/mL
